Source: patent publication US20150031572A1, “MEANS AND METHODS FOR ASSESSING NEURONAL TOXICITY” (priority 2012, published 2015)
Marks after values point to notes of the source that are not given here.

Assay: Plasma metabolite profiling (GC-MS, LC-MS, SPE-LC-MS) of rats dosed once daily over 28 days; treatment ratios versus untreated control
Assay type: in vivo, rat
Details: for 5-Oxoproline, plasma metabolite ratio versus control / Alanine, plasma metabolite ratio versus control / Arginine (second line of the table), plasma metabolite ratio versus control / Arginine, plasma metabolite ratio versus control / Citrulline, plasma metabolite ratio versus control / Glutamine, plasma metabolite ratio versus control / Proline, plasma metabolite ratio versus control / Tyrosine, plasma metabolite ratio versus control: high dose; for Creatinine, ratio versus control: Table 12a
Description: A group of each 5 male and female rats was dosed once daily with the indicated compounds (see Table 10, below for compounds, applied doses and administration details) over 28 days.
Each dose group in the studies consisted of five rats per sex. Additional groups of each 5 male and female animals served as controls. Before starting the treatment period, animals, which were 62-64 days old when supplied, were acclimatized to the housing and environmental conditions for 7 days. All animals of the animal population were kept under the same constant temperature (20-24±3° C.) and the same constant humidity (30-70%). The animals of the animal population were fed ad libitum. The food to be used was essentially free of chemical or microbial contaminants. Drinking water was also offered ad libitum. Accordingly, the water was free of chemical and microbial contaminants as laid down in the European Drinking Water Directive 98/83/EG. The illumination period was 12 hours light followed by 12 hours darkness (12 hours light, from 6:00 to 18:00, and 12 hours darkness, from 18:00 to 6:00). […] The test substances (compounds) in the Tables 1 to 9 below were dosed and administered as described in the Table 10 above.
In the morning of day 7, 14, and 28, blood was taken from the retro-orbital venous plexus from fasted anaesthetized animals. From each animal, 1 ml of blood was collected with EDTA as anticoagulant. The samples were centrifuged for generation of plasma. All plasma samples were covered with a N2 atmosphere and then stored at −80° C. until analysis.
For mass spectrometry-based metabolite profiling analyses plasma samples were extracted and a polar and a non-polar (lipid) fraction was obtained. For GC-MS analysis, the non-polar fraction was treated with methanol under acidic conditions to yield the fatty acid methyl esters. Both fractions were further derivatised with O-methyl-hydroxyamine hydrochloride and pyridine to convert Oxogroups to O-methyloximes and subsequently with a silylating agent before analysis. In LC-MS analysis, both fractions were reconstituted in appropriate solvent mixtures. HPLC was performed by gradient elution on reversed phase separation columns. Mass spectrometric detection which allows target and high sensitivity MRM (Multiple Reaction Monitoring) profiling in parallel to a full screen analysis was applied as described in WO2003073464.
Steroids and their metabolites were measured by online SPE-LC-MS (Solid phase extraction-LC-MS).
Following comprehensive analytical validation steps, the data for each analyte were normalized against data from pool samples. These samples were run in parallel through the whole process to account for process variability. The significance of treatment group values specific for sex, treatment duration and metabolite was determined by comparing means of the treated groups to the means of the respective untreated control groups using WELCH-test and quantified with treatment ratios versus control and p-values.
The identification of the most important biomarkers per toxicity pattern was done by a ranking of the analytes in the tables below. Therefore the metabolic changes in reference treatments of a given pattern (shown in the table) were compared with changes of the same metabolite in other unrelated treatments. […] The maximum absolute value of the respective TVALUE was taken to indicate the most important metabolite for the pattern.

[1] = plasma, female rats, day 7, high dose, Table 9a
[2] = plasma, female rats, day 7, high dose, Table 9b
[3] = plasma, female rats, day 14, high dose, Table 9a
[4] = plasma, female rats, day 14, high dose, Table 9b
[5] = plasma, female rats, day 28, high dose, Table 9a
[6] = plasma, female rats, day 28, high dose, Table 9b
[7] = plasma, male rats, day 7, high dose, Table 9c
[8] = plasma, male rats, day 7, high dose, Table 9d
[9] = plasma, male rats, day 14, high dose, Table 9c
[10] = plasma, male rats, day 14, high dose, Table 9d
[11] = plasma, male rats, day 28, high dose, Table 9c
[12] = plasma, male rats, day 28, high dose, Table 9d
[13] = plasma, female rats, day 28, high dose, Table 6b

O=C1CCCC(=O)C1C(=O)c1ccc(C(F)(F)F)cc1[N+](=O)[O-] [NTBC (HPPD-Inhibitor), NTBC]
4-Hydroxyphenylpyruvate, ratio versus control [1]: 245.75*
Glycine, ratio versus control [1]: 1.2*
Phosphatidylcholine (C18:0,C18:2), ratio versus control [1]: 1.03*
Serine, ratio versus control [1]: 1.38*
TAG (C16:0,C18:2), ratio versus control [1]: 1.62*
TAG (C18:1,C18:2), ratio versus control [1]: 2.45*
TAG (C18:2,C18:2), ratio versus control [1]: 1.91*
Threonine, ratio versus control [1]: 1.43*
Tyrosine, ratio versus control [1]: 37.75*
gamma-Linolenic acid (C18:cis[6,9,12]3), ratio versus control [1]: 1.34
5-Oxoproline, ratio versus control [2]: 0.5*
Glutamine, ratio versus control [2]: 0.54*
4-Hydroxyphenylpyruvate, ratio versus control [3]: 293.51*
Glycine, ratio versus control [3]: 1.33*
Phosphatidylcholine (C18:0,C18:2), ratio versus control [3]: 1
Serine, ratio versus control [3]: 1.48*
TAG (C16:0,C18:2), ratio versus control [3]: 1.37*
TAG (C18:1,C18:2), ratio versus control [3]: 2.22*
TAG (C18:2,C18:2), ratio versus control [3]: 1.92*
Threonine, ratio versus control [3]: 1.82*
Tyrosine, ratio versus control [3]: 50.64*
gamma-Linolenic acid (C18:cis[6,9,12]3), ratio versus control [3]: 1.61*
5-Oxoproline, ratio versus control [4]: 0.55*
Glutamine, ratio versus control [4]: 0.46*
4-Hydroxyphenylpyruvate, ratio versus control [5]: 276.92*
Glycine, ratio versus control [5]: 1.48*
Phosphatidylcholine (C18:0,C18:2), ratio versus control [5]: 1.05*
Serine, ratio versus control [5]: 1.43*
TAG (C16:0,C18:2), ratio versus control [5]: 1.44*
TAG (C18:1,C18:2), ratio versus control [5]: 1.51*
TAG (C18:2,C18:2), ratio versus control [5]: 1.31*
Threonine, ratio versus control [5]: 1.52*
Tyrosine, ratio versus control [5]: 38.31*
gamma-Linolenic acid (C18:cis[6,9,12]3), ratio versus control [5]: 1.55*
5-Oxoproline, ratio versus control [6]: 0.69*
Glutamine, ratio versus control [6]: 0.48*
4-Hydroxyphenylpyruvate, ratio versus control [7]: 364.14*
Lysine, ratio versus control [7]: 1.12
Threonine, ratio versus control [7]: 1.36*
Tyrosine, ratio versus control [7]: 56.14*
5-Oxoproline, ratio versus control [8]: 0.6*
Citrulline, ratio versus control [8]: 0.84*
Glutamine, ratio versus control [8]: 0.55*
Phenylalanine, ratio versus control [8]: 0.78*
4-Hydroxyphenylpyruvate, ratio versus control [9]: 435.77*
Lysine, ratio versus control [9]: 1.4*
Threonine, ratio versus control [9]: 1.51*
Tyrosine, ratio versus control [9]: 58.08*
5-Oxoproline, ratio versus control [10]: 0.61*
Citrulline, ratio versus control [10]: 0.88*
Glutamine, ratio versus control [10]: 0.57*
Phenylalanine, ratio versus control [10]: 0.77*
4-Hydroxyphenylpyruvate, ratio versus control [11]: 366.39*
Lysine, ratio versus control [11]: 1.46*
Threonine, ratio versus control [11]: 1.54*
Tyrosine, ratio versus control [11]: 52.56*
5-Oxoproline, ratio versus control [12]: 0.6*
Citrulline, ratio versus control [12]: 0.83*
Glutamine, ratio versus control [12]: 0.58*
Phenylalanine, ratio versus control [12]: 1.02

CCCC(C)C1(CC)C(=O)NC(=O)NC1=O (stereo not drawn) [Pentobarbital sodium i.p., Pentobarbital sodium]
3-Indoxylsulfate, ratio versus control (rat, in vivo): 1.44 *
Cysteine, ratio versus control (rat, in vivo): 0.64 *
Ketoleucine, ratio versus control (rat, in vivo): 1.09
Malate, ratio versus control (rat, in vivo): 0.83 *
Pantothenic acid, ratio versus control (rat, in vivo): 1.14^
Phosphate (inorganic and organic phosphates), ratio versus control (rat, in vivo): 1.21 *
Phosphatidylcholine (C16:0, C20:4), ratio versus control (rat, in vivo): 1 *
Phosphatidylcholine (C16:0, C22_6), ratio versus control (rat, in vivo): 0.94 *
alpha-Tocopherol, ratio versus control (rat, in vivo): 1.23 *

C=CCN1C[C@H](C(=O)N(CCCN(C)C)C(=O)NCC)C[C@@H]2c3cccc4[nH]cc(c34)C[C@H]21 [Cabergoline]
Isoleucine, ratio versus control (plasma, female rats, day 28, high dose, Table 6a): 1.14*
4-Hydroxy-3-methoxyphenylglycol (HMPG), ratio versus control [13]: 0.79*
14-Methylhexadecanoic acid, ratio versus control [13]: 0.74*
16-Methylheptadecanoic acid, ratio versus control [13]: 0.28*
17-Methyloctadecanoic acid, ratio versus control [13]: 0.3*
Ceramide (d18:1,C24:1), ratio versus control [13]: 0.39*
Choline plasmalogen No 03, ratio versus control [13]: 0.39*
Homovanillic acid (HVA), ratio versus control [13]: 0.41*
Isopalmitic acid (C16:0), ratio versus control [13]: 0.36*
Lactate, ratio versus control [13]: 0.7*
Myristic acid (C14:0), ratio versus control [13]: 0.33*
Phosphatidylcholine (C16:0, C20:4), ratio versus control [13]: 0.97
Phosphatidylcholine No 04, ratio versus control [13]: 0.34*
Pyruvate, ratio versus control [13]: 0.93
3-Methoxytyrosine, ratio versus control (rat, in vivo): 1.24*

CC(=O)[O-].[Tl+] [Thallium(I) acetate]
5-Oxoproline, plasma metabolite ratio versus control (male rats, day 7 (m7)): 0.92
Alanine, plasma metabolite ratio versus control (male rats, day 7 (m7)): 0.81
Arginine (second line of the table), plasma metabolite ratio versus control (male rats, day 7 (m7)): 0.90
Arginine, plasma metabolite ratio versus control (male rats, day 7 (m7)): 0.97
Citrulline, plasma metabolite ratio versus control (male rats, day 7 (m7)): 0.84
Glutamine, plasma metabolite ratio versus control (male rats, day 7 (m7)): 0.83
Proline, plasma metabolite ratio versus control (male rats, day 7 (m7)): 0.85
Tyrosine, plasma metabolite ratio versus control (male rats, day 7 (m7)): 0.82
5-Oxoproline, plasma metabolite ratio versus control (male rats, day 14 (m14)): 0.87
Alanine, plasma metabolite ratio versus control (male rats, day 14 (m14)): 0.95
Arginine (second line of the table), plasma metabolite ratio versus control (male rats, day 14 (m14)): 0.80
Arginine, plasma metabolite ratio versus control (male rats, day 14 (m14)): 0.87
Citrulline, plasma metabolite ratio versus control (male rats, day 14 (m14)): 0.84
Glutamine, plasma metabolite ratio versus control (male rats, day 14 (m14)): 0.77
Proline, plasma metabolite ratio versus control (male rats, day 14 (m14)): 0.80
Tyrosine, plasma metabolite ratio versus control (male rats, day 14 (m14)): 0.90
5-Oxoproline, plasma metabolite ratio versus control (male rats, day 28 (m28)): 0.83
Alanine, plasma metabolite ratio versus control (male rats, day 28 (m28)): 0.79
Arginine (second line of the table), plasma metabolite ratio versus control (male rats, day 28 (m28)): 0.85
Arginine, plasma metabolite ratio versus control (male rats, day 28 (m28)): 0.84
Citrulline, plasma metabolite ratio versus control (male rats, day 28 (m28)): 0.94
Glutamine, plasma metabolite ratio versus control (male rats, day 28 (m28)): 0.78
Proline, plasma metabolite ratio versus control (male rats, day 28 (m28)): 0.85
Tyrosine, plasma metabolite ratio versus control (male rats, day 28 (m28)): 0.87
Creatinine, ratio versus control (plasma, male rats, day 7, high dose): 1.69
Creatinine, ratio versus control (plasma, male rats, day 14, high dose): 1.50
Creatinine, ratio versus control (plasma, male rats, day 28, high dose): 1.89
